Bounds are passed on as bounds.

Chain of GLP1R (P43220 24-463): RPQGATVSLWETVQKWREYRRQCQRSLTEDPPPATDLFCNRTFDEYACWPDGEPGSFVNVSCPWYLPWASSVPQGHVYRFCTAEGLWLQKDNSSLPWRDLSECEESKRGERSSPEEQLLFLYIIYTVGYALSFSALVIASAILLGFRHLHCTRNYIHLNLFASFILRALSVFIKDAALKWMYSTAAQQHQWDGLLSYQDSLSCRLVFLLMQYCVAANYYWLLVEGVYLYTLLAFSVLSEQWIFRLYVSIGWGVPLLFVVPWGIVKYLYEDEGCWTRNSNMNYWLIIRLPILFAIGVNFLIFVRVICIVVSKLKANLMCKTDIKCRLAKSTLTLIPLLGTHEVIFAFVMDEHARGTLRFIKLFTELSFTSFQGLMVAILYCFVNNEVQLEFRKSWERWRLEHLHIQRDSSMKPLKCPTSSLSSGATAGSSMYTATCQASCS

The test addresses GLP1R (Homo sapiens, UniProt P43220). In words: GLP1R cAMP assay (HTRF), HEK293/GLP-1R/CRE/Luc, Clone 4.
In turn, `O=C(O)c1ccc2nc(Cc3ccc(-c4nc(OCc5ccc(Cl)cc5F)ccc4F)cc3F)n(C[C@@H]3CCO3)c2c1` [Compound 92, (S)-2-(4-(6-((4-chloro-2-fluorobenzyl)oxy)-3-fluoropyridin-2-yl)-2-fluorobenzyl)-1-(oxetan-2-ylmethyl)-1H-benzo[d]imidazole-6-carboxylic acid] had a concentration for a half-maximal effect (EC50) below 15 nM.

`O=C(O)c1ccc2nc(CN3CC=C(c4nc(OCc5ccc(Cl)cc5F)cs4)CC3)n(C[C@@H]3CCO3)c2c1` [Compound 246, (S)-2-((4-(4-((4-chloro-2-fluorobenzyl)oxy)thiazol-2-yl)-3,6-dihydropyridin-1(2H)-yl)methyl)-1-(oxetan-2-ylmethyl)-1H-benzo[d]imidazole-6-carboxylic acid] had a concentration for a half-maximal effect (EC50) of 15 to 150 nM.

Regarding `O=C(O)c1ccc2nc(CN3CC=C(c4coc(OCc5ccc(Cl)cc5F)n4)CC3)n(C[C@@H]3CCO3)c2c1` [Compound 248, (S)-2-((4-(2-((4-chloro-2-fluorobenzyl)oxy)oxazol-4-yl)-5,6-dihydropyridin-1(2H)-yl)methyl)-1-(oxetan-2-ylmethyl)-1H-benzo[d]imidazole-6-carboxylic acid], the EC50 is above 1000 nM.

`O=C(O)c1ccc2nc(CN3CC=C(c4csc(OCc5ccc(C#CC6CC6)cc5F)n4)CC3)n(C[C@@H]3CCO3)c2c1` [Compound 249, (S)-2-((4-(2-((4-(cyclopropylethynyl)-2-fluorobenzyl)oxy)thiazol-4-yl)-3,6-dihydropyridin-1(2H)-yl)methyl)-1-(oxetan-2-ylmethyl)-1H-benzo[d]imidazole-6-carboxylic acid]: the concentration for a half-maximal effect (EC50) is 15 to 150 nM.

Compound `O=C(O)c1ccc2nc(CN3CC=C(c4csc(OCc5ccc(Cl)cn5)n4)CC3)n(C[C@@H]3CCO3)c2c1` [Compound 250, (S)-2-((4-(2-((5-chloropyridin-2-yl)methoxy)thiazol-4-yl)-3,6-dihydropyridin-1(2H)-yl)methyl)-1-(oxetan-2-ylmethyl)-1H-benzo[d]imidazole-6-carboxylic acid] displayed an EC50 of 15 to 150 nM.

Take `O=C(O)c1ccc2nc(CN3CC=C(c4csc(OCc5ccc(OC(F)(F)F)cc5)n4)CC3)n(C[C@@H]3CCO3)c2c1` [Compound 251, (S)-1-(oxetan-2-ylmethyl)-2-((4-(2-((4-(trifluoromethoxy)benzyl)oxy)thiazol-4-yl)-3,6-dihydropyridin-1(2H)-yl)methyl)-1H-benzo[d]imidazole-6-carboxylic acid]: the EC50 was in the range of 15 to 150 nM.

On to `O=C(O)c1ccc2nc(CN3CC=C(c4csc(OCc5ccc(F)cc5F)n4)CC3)n(C[C@@H]3CCO3)c2c1` [Compound 252, (S)-2-((4-(2-((2,4-difluorobenzyl)oxy)thiazol-4-yl)-3,6-dihydropyridin-1(2H)-yl)methyl)-1-(oxetan-2-ylmethyl)-1H-benzo[d]imidazole-6-carboxylic acid], for which the EC50 lay in the range of 15 to 150 nM.

Compound `O=C(O)c1ccc2nc(CN3CC=C(c4csc(OCc5ccc(Br)cn5)n4)CC3)n(C[C@@H]3CCO3)c2c1` [Compound 253, (S)-2-((4-(2-((5-bromopyridin-2-yl)methoxy)thiazol-4-yl)-3,6-dihydropyridin-1(2H)-yl)methyl)-1-(oxetan-2-ylmethyl)-1H-benzo[d]imidazole-6-carboxylic acid] had a concentration for a half-maximal effect (EC50) of 15 to 150 nM.

The compound `O=C(O)c1ccc2nc(CN3CC=C(c4csc(OCc5ccc(F)cc5Cl)n4)CC3)n(C[C@@H]3CCO3)c2c1` [Compound 254, (S)-2-((4-(2-((2-chloro-4-fluorobenzyl)oxy)thiazol-4-yl)-3,6-dihydropyridin-1(2H)-yl)methyl)-1-(oxetan-2-ylmethyl)-1H-benzo[d]imidazole-6-carboxylic acid] gave a concentration giving a half-maximal response (EC50) of 15 to 150 nM.

Compound `O=C(O)c1ccc2nc(CN3CC=C(c4csc(OCc5ccc(C(F)(F)F)nc5)n4)CC3)n(C[C@@H]3CCO3)c2c1` [Compound 255, (S)-1-(oxetan-2-ylmethyl)-2-((4-(2-((6-(trifluoromethyl)pyridin-3-yl)methoxy)thiazol-4-yl)-3,6-dihydropyridin-1(2H)-yl)methyl)-1H-benzo[d]imidazole-6-carboxylic acid] returned an EC50 of 15 to 150 nM.

The compound `O=C(O)c1ccc2nc(CN3CC=C(c4csc(OCc5ccc(C(F)(F)F)cc5)n4)CC3)n(C[C@@H]3CCO3)c2c1` [Compound 256, (S)-1-(oxetan-2-ylmethyl)-2-((4-(2-((4-(trifluoromethyl)benzyl)oxy)thiazol-4-yl)-3,6-dihydropyridin-1(2H)-yl)methyl)-1H-benzo[d]imidazole-6-carboxylic acid] registered a concentration for a half-maximal effect (EC50) of 15 to 150 nM.

Turning to `O=C(O)c1ccc2nc(Cc3ccc(-c4cccc(OCc5ccc(Cl)cc5F)n4)cc3Cl)n(C[C@@H]3CCO3)c2c1` [Compound 258, (S)-2-(2-chloro-4-(6-((4-chloro-2-fluorobenzyl)oxy)pyridin-2-yl)benzyl)-1-(oxetan-2-ylmethyl)-1H-benzo[d]imidazole-6-carboxylic acid], the EC50 is below 15 nM.

Compound `O=C(O)c1ccc2nc(Cc3ccc(-c4nccc(OCc5ccc(Cl)cc5F)n4)c(F)c3)n(C[C@@H]3CCO3)c2c1` [Compound 259, (S)-2-(4-(4-((4-chloro-2-fluorobenzyl)oxy)pyrimidin-2-yl)-3-fluorobenzyl)-1-(oxetan-2-ylmethyl)-1H-benzo[d]imidazole-6-carboxylic acid] gave an EC50 below 15 nM.

With `O=C(O)c1ccc2nc(Cc3ccc(-c4nc(OCc5ccc(Cl)cc5F)c(F)cc4F)cc3F)n(C[C@@H]3CCO3)c2c1` [Compound 260, (S)-2-(4-(6-(4-chloro-2-fluorobenzyloxy)-3,5-difluoropyridin-2-yl)-2-fluorobenzyl)-1-(oxetan-2-ylmethyl)-1H-benzo[d]imidazole-6-carboxylic acid], the EC50 is below 15 nM.

Consider `O=C(O)c1ccc2nc(Cc3ccc(-c4nc(OCc5ccc(Cl)cc5F)ccc4F)c(F)c3)n(C[C@@H]3CCO3)c2c1` [Compound 261, (S)-2-(4-(6-(4-chloro-2-fluorobenzyloxy)-3-fluoropyridin-2-yl)-3-fluorobenzyl)-1-(oxetan-2-ylmethyl)-1H-benzo[d]imidazole-6-carboxylic acid], for which the EC50 is below 15 nM.

`N#Cc1ccc(COc2nc(-c3ccc(Cc4nc5ccc(C(=O)O)cc5n4C[C@@H]4CCO4)c(F)c3)ccc2F)c(F)c1` [Compound 264, (S)-2-(4-(6-((4-cyano-2-fluorobenzyl)oxy)-5-fluoropyridin-2-yl)-2-fluorobenzyl)-1-(oxetan-2-ylmethyl)-1H-benzo[d]imidazole-6-carboxylic acid] yielded a half-maximal effective concentration (EC50) below 15 nM.

The compound `O=C(O)c1ccc2nc(Cc3ccc(-c4cncc(OCc5ccc(Cl)cc5F)n4)cc3F)n(C[C@@H]3CCO3)c2c1` [Compound 265, (S)-2-(4-(6-((4-chloro-2-fluorobenzyl)oxy)pyrazin-2-yl)-2-fluorobenzyl)-1-(oxetan-2-ylmethyl)-1H-benzo[d]imidazole-6-carboxylic acid] yielded a 50% effective concentration (EC50) below 15 nM.

Consider `N#Cc1ccc(COc2ccc(F)c(-c3ccc(Cc4nc5ccc(C(=O)O)cc5n4C[C@@H]4CCO4)c(F)c3)n2)c(F)c1` [Compound 268, (S)-2-(4-(6-((4-cyano-2-fluorobenzyl)oxy)-3-fluoropyridin-2-yl)-2-fluorobenzyl)-1-(oxetan-2-ylmethyl)-1H-benzo[d]imidazole-6-carboxylic acid], for which the half-maximal effective concentration (EC50) was below 15 nM.

`O=C(O)c1ccc2nc(Cc3cc(F)c(-c4cccc(OCc5ccc(Cl)cn5)n4)cc3F)n(C[C@@H]3CCO3)c2c1` [Compound 269, (S)-2-(4-(6-((5-chloropyridin-2-yl)methoxy)pyridin-2-yl)-2,5-difluorobenzyl)-1-(oxetan-2-ylmethyl)-1H-benzo[d]imidazole-6-carboxylic acid] yielded an EC50 below 15 nM.

Take `Cc1cc(Cc2nc3ccc(C(=O)O)cc3n2C[C@@H]2CCO2)ccc1-c1cccc(OCc2ccc(Cl)cc2F)n1` [Compound 270, (S)-2-(4-(6-((4-chloro-2-fluorobenzyl)oxy)pyridin-2-yl)-3-methylbenzyl)-1-(oxetan-2-ylmethyl)-1H-benzo[d]imidazole-6-carboxylic acid]: the EC50 is below 15 nM.

`O=C(O)c1ccc2nc(Cc3cc(F)c(-c4ncc(F)c(OCc5ncc(Cl)cc5F)n4)cc3F)n(C[C@@H]3CCO3)c2n1` [Compound 273, (S)-2-(4-(4-((5-chloro-3-fluoropyridin-2-yl)methoxy)-5-fluoropyrimidin-2-yl)-2,5-difluorobenzyl)-3-(oxetan-2-ylmethyl)-3H-imidazo[4,5-b]pyridine-5-carboxylic acid]: the EC50 was below 15 nM.

In the case of `O=C(O)c1ccc2nc(Cc3ccc(-c4cccc(OCc5ccc(F)cc5F)n4)cc3F)n(C[C@@H]3CCO3)c2c1` [Compound 274, (S)-2-(4-(6-((2,4-difluorobenzyl)oxy)pyridin-2-yl)-2-fluorobenzyl)-1-(oxetan-2-ylmethyl)-1H-benzo[d]imidazole-6-carboxylic acid], the EC50 was below 15 nM.

On to `N#Cc1ccc(COc2nc(-c3cc(F)c(Cc4nc5ccc(C(=O)O)cc5n4C[C@@H]4CCO4)cc3F)ncc2F)nc1` [Compound 275, (S)-2-(4-(4-((5-cyanopyridin-2-yl)methoxy)-5-fluoropyrimidin-2-yl)-2,5-difluorobenzyl)-1-(oxetan-2-ylmethyl)-1H-benzo[d]imidazole-6-carboxylic acid], for which the EC50 is below 15 nM.

`N#Cc1ccc(COc2cccc(-c3ccc(Cc4nc5ccc(C(=O)O)nc5n4C[C@@H]4CCO4)c(F)c3)n2)c(F)c1` [Compound 282, (S)-2-(4-(6-((4-cyano-2-fluorobenzyl)oxy)pyridin-2-yl)-2-fluorobenzyl)-3-(oxetan-2-ylmethyl)-3H-imidazo[4,5-b]pyridine-5-carboxylic acid] yielded an EC50 below 15 nM.

In turn, `O=C(O)c1ccc2nc(Cc3ccc(-c4ccc(F)c(OCc5ccc(Cl)cc5F)n4)cc3F)n(C[C@@H]3CCO3)c2n1` [Compound 283, (S)-2-(4-(6-(4-chloro-2-fluorobenzyloxy)-5-fluoropyridin-2-yl)-2-fluorobenzyl)-3-(oxetan-2-ylmethyl)-3H-imidazo[4,5-b]pyridine-5-carboxylic acid] had an EC50 below 15 nM.

As for `O=C(O)c1ccc2nc(Cc3ccc(-c4cccc(OCc5ccc(F)cc5F)n4)cc3F)n(C[C@@H]3CCO3)c2n1` [Compound 286, (S)-2-(4-(6-((2,4-difluorobenzyl)oxy)pyridin-2-yl)-2-fluorobenzyl)-3-(oxetan-2-ylmethyl)-3H-imidazo[4,5-b]pyridine-5-carboxylic acid], the EC50 was below 15 nM.

The values above are taken from patent publication US10954221B2, “GLP-1R agonists and uses thereof” (QILU REGOR THERAPEUTICS INC., priority 2019, dated 2021).
